Measured values published in patent publication US20060150260A1, “Genes related to drug resistance” (Northwestern University, priority 2004, published 2006).

Key:
Assay type in all cases: cell-based, human
MCF-7 cells [1] = assay: Cell growth with 4OHTAM; set-up: cell growth: dose or concentration left out as unconfirmed
Protocol: Cells: MCF-7 (ATCC: HTB-22) cells were grown in Dulbecco's Modified Eagle's medium, 2 mM glutamine, 0.1 mM non-essential amino acids, 10 units/ml of penicillin, 10 μg/ml of streptomycin (all—Invitrogen, Calif.), supplemented with 10% fetal bovine serum (HyClone, Utah), 6 μg/ml of insulin (Sigma, Mo.), 30 μg/ml of fungin, and 10 μg/ml of plasmocin (both—InvivoGen, Calif.). 4-Hydroxytamoxifen (Sigma, Mo.) was used as 10 mM stock solution in ethanol and stored at −20° C.
To gain a better understanding of changes induced by the RIGs, cell growth of RIGs-expressing populations was evaluated with and without 4OHTAM (FIG. 3). In drug-free media the proliferation rate of the B4 RIG-expressing cells was at least equal to parental MCF-7 cells or GFP-expressing control, while for B6, D10 and E5 the proliferation rate was higher (FIG. 3A). […] It is contemplated that cessation of growth for parental and control cells reflects terminal damage and initial stages of cellular demise, whereas for RIG E5-expressing cells cessation of growth is a protective response to drug exposure.

[2] = tested on: GFP-expressing MCF-7 control cells; assay: Colony forming assay after 4OHTAM treatment, GFP control; conditions: 7.5 µM of 4OHTAM, 14 days treatment
Protocol: (§1) Colony Forming Assay: five hundred cells were plated per 60 mm plate and allowed to recover overnight. […] Treatment continued for 14 days with media replacement every two days; then cells were allowed to recover for two weeks, fixed with alcohol and stained with crystal violet (2% w/v). Colonies (over 150 cells per group) were counted. Experiments were done in triplicate.
(§2) Resistance was determined by colony-forming assay as described in Materials and Methods: plates were stained, and colonies were counted (FIG. 2B); results of the experiment were plotted (FIG. 2C). […] In heterogeneous populations the level of resistance is lower than in single-cell clones (presence of cells without inserts, different levels of expression, etc), so resistance induced by selected cDNAs in individual cells can be much higher. As selected cDNAs induced resistance to 4OHTAM, they were considered to be resistance-inducing genes (RIGs).

MCF-7 cells [3] = assay: Apoptosis check: propidium iodide DNA content (FACS) and DNA ladder
Protocol: Cell staining. Propidium iodide (DNA content): cells were permeabilized with cold EtOH, incubated with propidium iodide/RNase staining buffer (BD Bioscience, Calif.) for 15 min at room temperature, and analyzed by flow cytometry.
(§3) Flow Cytometry was performed using a Beckman Coulter Epics XL-MCL (Beckman, Fla.) with System II v. 3.0 software and CYAN (DakoCytomation, Colo.) and Summit v. 3.3 software.

[4] = tested on: B6-containing MCF-7 cells; assay: Mitochondrial mass, MitoFluor 589 staining, flow cytometry; conditions: 4OHTAM for 72 hr
Protocol: MitoTracker Red CMXRos (mitochondrial membrane potential) and MitoFluor 589 (mitochondrial mass detection): both dyes were obtained from Molecular Probes, Calif., and added to cells (250 nM final concentration) for 25 min at 37° C. in the CO2 incubator. Cells were then trypsinized and analyzed by flow cytometry or by fluorescent microscope.
as §3
The fate of mitochondria was also examined in experiments assessing mitochondrial activity (FIG. 7C). […] The intracellular content of this organelle on a per cell basis remains fairly constant with only insignificant fluctuations (FIG. 7B), indicating a tight control of the number of mitochondria per cell. 1S A population of B6-containing cells treated with 4OHTAM for 72 hr contains approximately 30% of cells with reduced mitochondrial content (67% have normal mitochondrial content), which is close to the distribution of parental MCF-7 cells treated for 48 hr (FIG. 7B). At the same two timepoints mitochondrial activity distributions are vastly different: a separate low-activity peak for MCF-7 and a barely noticeable asymmetry (“shoulder”) for B6-cells (FIG. 7C). The present invention is not limited to a particular mechanism. […]

[5] = tested on: MCF-7 cells infected with cDNA inserts B4, B6, D10, E5; assay: Colony forming assay after 4OHTAM treatment, cDNA (RIG)-containing populations
Protocol: as §1, §2

## 4-Hydroxytamoxifen [4OHTAM]
MCF-7 cells [1]; 10 mM 4OHTAM, MCF-7 cells
  cell proliferation: blocked
MCF-7 cells [1]; RIGs-containing and parental cells
  cell growth: inhibited
[2]
  survival of GFP-expressing control, colony formation assay: > 10%
MCF-7 cells [3]; genomic DNA of 4OHTAM-treated cells
  DNA fragmentation pattern (DNA ladder): no characteristic DNA fragmentation pattern (DNA ladder) was detected
MCF-7 cells [3]; up to 20 μM 4OHTAM
  apoptotic sub-G1 peak in FACS profiles: No evidence was found of a characteristic sub-G1 peak
[4]
  cells with normal mitochondrial content: 67%
  cells with reduced mitochondrial content: approximately 30%
[5]; 7.5 μM 4OHTAM, colony-forming assay
  resistance of cDNA-expressing cells relative to control (EGFP-only) cells: five-six times more resistant
[5]; cDNA-containing populations, 7.5 µM of 4OHTAM, 14 days treatment
  survival of populations, colony formation assay: ~65%
